Here are results for three compounds from article PMC6437697 (Journal of Medicinal Chemistry, 2019).

Common to all, as to experiment: KINOMEscan
Format in all cases: binding
Holding throughout (details): read-out: % control activity remaining

One experiment deals with T1, CDC2L5 (Homo sapiens, UniProt Q14004).
T1 construct: purchased Eurofins DiscoverX KINOMEscan

A further experiment concerns the target T2, FLT1 (Homo sapiens, UniProt P17948).
T2 construct: purchased Eurofins DiscoverX KINOMEscan

The next experiment concerns the target T3, GRK7 (Homo sapiens, UniProt Q8WTQ7).
T3 construct: purchased Eurofins DiscoverX KINOMEscan
T3 sequence (Q8WTQ7 1-553): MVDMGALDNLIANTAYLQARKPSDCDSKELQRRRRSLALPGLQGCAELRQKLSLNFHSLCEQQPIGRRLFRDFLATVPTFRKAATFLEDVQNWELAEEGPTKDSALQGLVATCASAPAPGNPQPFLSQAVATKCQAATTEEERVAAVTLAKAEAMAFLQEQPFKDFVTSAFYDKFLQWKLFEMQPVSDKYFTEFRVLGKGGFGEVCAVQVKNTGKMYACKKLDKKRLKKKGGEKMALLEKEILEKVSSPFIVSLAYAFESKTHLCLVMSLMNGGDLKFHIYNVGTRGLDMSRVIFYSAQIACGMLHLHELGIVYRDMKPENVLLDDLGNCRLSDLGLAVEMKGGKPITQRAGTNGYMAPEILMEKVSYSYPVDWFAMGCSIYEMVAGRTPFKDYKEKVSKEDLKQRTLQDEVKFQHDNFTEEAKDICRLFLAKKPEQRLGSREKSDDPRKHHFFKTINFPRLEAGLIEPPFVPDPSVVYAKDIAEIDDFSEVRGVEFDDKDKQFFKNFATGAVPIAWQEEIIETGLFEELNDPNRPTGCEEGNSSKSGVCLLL

In another experiment the target is T4, KIT(V559D,V654A) (Homo sapiens, UniProt P10721, V559D/V654A).
T4 construct: purchased Eurofins DiscoverX KINOMEscan
T4 sequence (P10721 26-976 V559D/V654A): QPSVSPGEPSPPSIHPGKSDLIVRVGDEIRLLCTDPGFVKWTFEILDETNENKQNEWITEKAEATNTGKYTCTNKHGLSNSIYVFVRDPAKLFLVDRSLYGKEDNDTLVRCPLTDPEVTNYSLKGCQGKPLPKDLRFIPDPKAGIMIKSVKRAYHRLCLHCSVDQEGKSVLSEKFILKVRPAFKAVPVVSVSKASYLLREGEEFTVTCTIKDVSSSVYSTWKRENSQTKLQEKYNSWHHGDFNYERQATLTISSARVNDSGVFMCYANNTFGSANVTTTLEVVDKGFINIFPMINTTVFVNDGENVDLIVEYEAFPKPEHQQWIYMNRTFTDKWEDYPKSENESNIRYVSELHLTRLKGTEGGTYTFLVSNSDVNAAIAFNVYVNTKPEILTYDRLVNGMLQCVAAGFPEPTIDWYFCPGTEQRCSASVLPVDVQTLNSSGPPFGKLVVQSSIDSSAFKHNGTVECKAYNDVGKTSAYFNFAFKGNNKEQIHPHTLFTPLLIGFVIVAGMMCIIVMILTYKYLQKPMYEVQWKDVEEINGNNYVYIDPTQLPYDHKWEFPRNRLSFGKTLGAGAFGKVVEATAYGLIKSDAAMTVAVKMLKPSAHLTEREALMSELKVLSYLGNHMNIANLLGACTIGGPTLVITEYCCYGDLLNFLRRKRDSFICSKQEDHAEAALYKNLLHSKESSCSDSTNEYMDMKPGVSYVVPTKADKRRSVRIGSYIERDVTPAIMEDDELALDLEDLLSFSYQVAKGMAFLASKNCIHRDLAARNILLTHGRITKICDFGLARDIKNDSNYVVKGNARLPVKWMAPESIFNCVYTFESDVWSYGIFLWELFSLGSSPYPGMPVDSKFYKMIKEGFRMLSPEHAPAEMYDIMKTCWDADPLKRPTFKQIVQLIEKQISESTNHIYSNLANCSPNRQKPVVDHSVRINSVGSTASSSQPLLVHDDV

A further experiment concerns the target T5, MEK5 (Homo sapiens, UniProt Q13163).
T5 construct: purchased Eurofins DiscoverX KINOMEscan
T5 sequence (Q13163 1-448): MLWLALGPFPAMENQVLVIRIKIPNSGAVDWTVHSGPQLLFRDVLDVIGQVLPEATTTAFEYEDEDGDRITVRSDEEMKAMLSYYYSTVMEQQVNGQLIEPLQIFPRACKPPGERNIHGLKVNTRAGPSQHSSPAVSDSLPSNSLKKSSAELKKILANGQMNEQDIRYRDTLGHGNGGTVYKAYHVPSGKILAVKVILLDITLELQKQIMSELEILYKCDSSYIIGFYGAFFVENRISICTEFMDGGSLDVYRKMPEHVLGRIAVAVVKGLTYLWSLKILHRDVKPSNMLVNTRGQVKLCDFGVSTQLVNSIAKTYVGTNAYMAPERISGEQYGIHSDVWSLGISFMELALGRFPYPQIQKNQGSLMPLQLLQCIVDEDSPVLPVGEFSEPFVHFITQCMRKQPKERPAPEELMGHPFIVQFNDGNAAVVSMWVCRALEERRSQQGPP

The target of the next experiment is T6, MLK3 (Homo sapiens, UniProt Q16584).
T6 construct: purchased Eurofins DiscoverX KINOMEscan

The next experiment has as its target T7, MYLK4 (Homo sapiens, UniProt Q86YV6).
T7 construct: purchased Eurofins DiscoverX KINOMEscan
T7 sequence (Q86YV6 1-388): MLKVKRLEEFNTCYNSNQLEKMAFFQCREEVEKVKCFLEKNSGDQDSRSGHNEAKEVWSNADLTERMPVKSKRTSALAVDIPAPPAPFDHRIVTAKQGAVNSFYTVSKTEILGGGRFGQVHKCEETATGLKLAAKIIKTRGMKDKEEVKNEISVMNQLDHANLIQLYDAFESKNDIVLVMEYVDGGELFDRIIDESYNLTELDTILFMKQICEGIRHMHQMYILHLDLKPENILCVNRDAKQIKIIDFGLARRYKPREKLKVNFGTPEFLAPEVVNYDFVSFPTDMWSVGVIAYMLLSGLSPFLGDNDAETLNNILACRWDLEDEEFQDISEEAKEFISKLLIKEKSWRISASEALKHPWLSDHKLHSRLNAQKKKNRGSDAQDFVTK

A further experiment concerns the target T8, p38-gamma (Homo sapiens, UniProt P53778).
T8 construct: purchased Eurofins DiscoverX KINOMEscan
T8 sequence (P53778 1-367): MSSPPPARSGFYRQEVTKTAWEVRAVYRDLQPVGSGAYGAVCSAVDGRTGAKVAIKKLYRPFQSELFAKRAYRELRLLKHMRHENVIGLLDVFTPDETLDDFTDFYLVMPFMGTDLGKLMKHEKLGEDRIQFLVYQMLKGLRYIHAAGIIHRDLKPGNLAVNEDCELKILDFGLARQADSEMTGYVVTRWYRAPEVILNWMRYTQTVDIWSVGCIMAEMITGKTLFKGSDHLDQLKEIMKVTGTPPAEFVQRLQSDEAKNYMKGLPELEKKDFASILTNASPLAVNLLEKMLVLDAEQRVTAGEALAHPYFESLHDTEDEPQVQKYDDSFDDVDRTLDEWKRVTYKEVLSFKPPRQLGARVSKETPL

The target in experiment [1] is T9, RPS6KA4(Kin.Dom.1-N-terminal) (Homo sapiens, UniProt O75676).
T9 construct: RPS6KA4(Kin.Dom.1-N-terminal); purchased Eurofins DiscoverX KINOMEscan
T9 sequence (O75676 33-301 limits assumed): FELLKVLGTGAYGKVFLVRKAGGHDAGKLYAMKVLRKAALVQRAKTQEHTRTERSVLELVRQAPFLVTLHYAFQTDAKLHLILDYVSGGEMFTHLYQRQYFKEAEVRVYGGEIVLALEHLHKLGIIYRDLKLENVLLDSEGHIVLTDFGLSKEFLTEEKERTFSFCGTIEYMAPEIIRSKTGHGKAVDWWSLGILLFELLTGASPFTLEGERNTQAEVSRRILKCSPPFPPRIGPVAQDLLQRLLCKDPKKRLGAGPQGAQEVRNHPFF

The target in experiment [2] is T10, RPS6KA5(Kin.Dom.1-N-terminal) (Homo sapiens, UniProt O75582).
T10 construct: RPS6KA5(Kin.Dom.1-N-terminal); purchased Eurofins DiscoverX KINOMEscan
T10 sequence (O75582 49-318 limits assumed): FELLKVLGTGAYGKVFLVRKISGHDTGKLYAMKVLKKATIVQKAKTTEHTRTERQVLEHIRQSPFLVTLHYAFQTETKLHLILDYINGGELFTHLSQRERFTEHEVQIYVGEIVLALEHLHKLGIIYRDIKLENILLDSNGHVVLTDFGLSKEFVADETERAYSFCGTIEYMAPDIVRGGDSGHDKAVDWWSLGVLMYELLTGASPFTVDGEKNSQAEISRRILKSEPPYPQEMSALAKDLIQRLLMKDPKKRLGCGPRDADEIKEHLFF

Experiment [3] concerns the target T11, RSK3(Kin.Dom.1-N-terminal) (Homo sapiens, UniProt Q15349).
T11 construct: RSK3(Kin.Dom.1-N-terminal); purchased Eurofins DiscoverX KINOMEscan

For a further experiment, the target named is T12, SBK1 (Homo sapiens, UniProt Q52WX2).
T12 construct: purchased Eurofins DiscoverX KINOMEscan
T12 sequence (Q52WX2 whole entry): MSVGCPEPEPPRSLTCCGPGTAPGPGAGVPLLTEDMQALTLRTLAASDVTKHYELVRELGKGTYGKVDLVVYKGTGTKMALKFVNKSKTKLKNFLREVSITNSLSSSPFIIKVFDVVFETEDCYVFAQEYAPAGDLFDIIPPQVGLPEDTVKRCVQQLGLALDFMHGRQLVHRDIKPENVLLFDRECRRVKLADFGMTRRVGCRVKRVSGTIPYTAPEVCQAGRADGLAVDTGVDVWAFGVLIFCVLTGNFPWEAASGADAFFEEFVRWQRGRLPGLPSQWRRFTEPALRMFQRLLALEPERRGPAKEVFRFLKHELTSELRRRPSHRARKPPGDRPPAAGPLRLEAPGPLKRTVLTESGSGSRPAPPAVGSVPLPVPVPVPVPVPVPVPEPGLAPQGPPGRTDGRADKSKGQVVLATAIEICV

T1 sequence (Q14004 whole entry): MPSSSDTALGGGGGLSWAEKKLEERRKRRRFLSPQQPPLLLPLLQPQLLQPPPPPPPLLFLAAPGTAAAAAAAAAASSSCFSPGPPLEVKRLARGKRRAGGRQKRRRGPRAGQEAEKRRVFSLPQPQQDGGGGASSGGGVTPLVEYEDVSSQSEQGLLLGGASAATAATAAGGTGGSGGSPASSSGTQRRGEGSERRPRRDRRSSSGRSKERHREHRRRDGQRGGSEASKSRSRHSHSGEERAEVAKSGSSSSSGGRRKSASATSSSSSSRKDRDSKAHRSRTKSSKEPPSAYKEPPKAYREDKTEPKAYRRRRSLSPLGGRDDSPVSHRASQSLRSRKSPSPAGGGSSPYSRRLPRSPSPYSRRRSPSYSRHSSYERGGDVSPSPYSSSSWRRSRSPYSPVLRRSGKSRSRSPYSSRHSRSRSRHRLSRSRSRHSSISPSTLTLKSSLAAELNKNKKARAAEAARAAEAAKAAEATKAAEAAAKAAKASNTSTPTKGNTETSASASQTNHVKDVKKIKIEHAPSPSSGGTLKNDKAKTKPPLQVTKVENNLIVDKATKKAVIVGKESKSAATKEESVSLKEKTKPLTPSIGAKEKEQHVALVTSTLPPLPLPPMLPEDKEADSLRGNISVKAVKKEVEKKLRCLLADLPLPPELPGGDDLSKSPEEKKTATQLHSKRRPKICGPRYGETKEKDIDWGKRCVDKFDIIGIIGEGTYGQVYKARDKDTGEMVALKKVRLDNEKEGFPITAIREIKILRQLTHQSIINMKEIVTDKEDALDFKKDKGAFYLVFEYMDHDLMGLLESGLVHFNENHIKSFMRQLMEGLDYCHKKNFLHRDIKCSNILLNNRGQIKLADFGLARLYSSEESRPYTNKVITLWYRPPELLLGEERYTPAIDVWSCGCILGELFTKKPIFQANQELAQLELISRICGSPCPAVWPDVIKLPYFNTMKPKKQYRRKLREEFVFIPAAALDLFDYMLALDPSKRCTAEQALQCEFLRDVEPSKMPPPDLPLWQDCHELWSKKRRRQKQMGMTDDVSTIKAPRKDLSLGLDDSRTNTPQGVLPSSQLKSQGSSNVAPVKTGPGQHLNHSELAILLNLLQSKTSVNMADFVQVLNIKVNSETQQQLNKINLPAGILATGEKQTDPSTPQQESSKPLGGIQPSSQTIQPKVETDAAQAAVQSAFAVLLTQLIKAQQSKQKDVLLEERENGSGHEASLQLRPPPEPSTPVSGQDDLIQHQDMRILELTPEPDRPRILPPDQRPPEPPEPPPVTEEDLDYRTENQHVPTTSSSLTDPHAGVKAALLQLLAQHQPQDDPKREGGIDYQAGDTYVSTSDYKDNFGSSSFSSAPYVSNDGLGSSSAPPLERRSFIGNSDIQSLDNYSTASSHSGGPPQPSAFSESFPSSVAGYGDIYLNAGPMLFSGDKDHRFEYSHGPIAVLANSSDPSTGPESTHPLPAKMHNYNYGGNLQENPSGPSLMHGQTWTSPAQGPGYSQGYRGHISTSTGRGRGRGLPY
T2 sequence (P17948 27-1338): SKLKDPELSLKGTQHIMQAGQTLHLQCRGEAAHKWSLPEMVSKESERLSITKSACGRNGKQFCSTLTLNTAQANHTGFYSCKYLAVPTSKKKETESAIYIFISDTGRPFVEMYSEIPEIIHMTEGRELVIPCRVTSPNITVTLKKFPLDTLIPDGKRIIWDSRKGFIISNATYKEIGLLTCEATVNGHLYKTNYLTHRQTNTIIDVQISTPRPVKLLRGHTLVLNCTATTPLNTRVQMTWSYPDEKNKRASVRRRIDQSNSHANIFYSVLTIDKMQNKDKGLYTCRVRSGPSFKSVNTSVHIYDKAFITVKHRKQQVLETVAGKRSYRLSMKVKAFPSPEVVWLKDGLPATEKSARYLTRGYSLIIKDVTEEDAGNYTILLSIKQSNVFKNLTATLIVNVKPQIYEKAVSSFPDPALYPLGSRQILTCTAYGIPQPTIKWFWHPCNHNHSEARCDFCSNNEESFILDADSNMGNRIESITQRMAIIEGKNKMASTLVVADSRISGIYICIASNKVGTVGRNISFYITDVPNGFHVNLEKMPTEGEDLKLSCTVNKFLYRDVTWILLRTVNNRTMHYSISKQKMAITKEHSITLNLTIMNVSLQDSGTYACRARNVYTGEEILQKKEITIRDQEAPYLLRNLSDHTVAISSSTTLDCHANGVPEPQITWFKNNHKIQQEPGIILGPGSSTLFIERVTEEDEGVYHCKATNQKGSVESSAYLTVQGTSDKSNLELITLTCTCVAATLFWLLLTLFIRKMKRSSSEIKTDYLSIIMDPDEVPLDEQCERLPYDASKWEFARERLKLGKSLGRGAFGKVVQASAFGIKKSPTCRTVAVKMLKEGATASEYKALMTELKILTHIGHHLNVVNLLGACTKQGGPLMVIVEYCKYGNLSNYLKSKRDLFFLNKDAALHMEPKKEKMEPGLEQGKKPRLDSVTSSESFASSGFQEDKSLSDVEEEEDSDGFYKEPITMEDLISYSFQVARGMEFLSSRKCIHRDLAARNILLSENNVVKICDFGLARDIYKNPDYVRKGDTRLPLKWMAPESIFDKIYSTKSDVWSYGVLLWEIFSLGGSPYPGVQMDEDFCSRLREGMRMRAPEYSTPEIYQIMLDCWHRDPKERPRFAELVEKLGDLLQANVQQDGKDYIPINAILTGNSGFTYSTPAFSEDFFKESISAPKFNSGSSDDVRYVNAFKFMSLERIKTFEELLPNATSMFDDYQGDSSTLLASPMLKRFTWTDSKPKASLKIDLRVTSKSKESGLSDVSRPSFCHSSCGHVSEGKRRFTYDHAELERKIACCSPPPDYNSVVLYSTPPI
T11 sequence (Q15349 59-318 limits assumed): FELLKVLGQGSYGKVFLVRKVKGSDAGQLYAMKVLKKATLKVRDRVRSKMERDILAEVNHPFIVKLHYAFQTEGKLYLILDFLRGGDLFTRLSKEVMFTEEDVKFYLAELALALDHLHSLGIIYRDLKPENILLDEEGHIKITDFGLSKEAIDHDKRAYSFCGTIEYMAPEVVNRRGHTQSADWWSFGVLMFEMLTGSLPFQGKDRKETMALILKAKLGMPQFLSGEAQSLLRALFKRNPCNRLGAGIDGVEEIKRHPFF

Turning to `Clc1cc(NCC2CC2)c2ncc(-c3ccc4[nH]ncc4c3)n2n1` [compound 2, 6-Chloro-N-(cyclopropylmethyl)-3-(1H-indazol-5-yl)imidazo[1,2-b]pyridazin-8-amine], the remaining binding at 1 µM is 92% at CDC2L5; 90% on FLT1; 97% at GRK7; 7.8% on KIT(V559D,V654A); 85% at MEK5; 100% on MLK3. Further, the remaining binding at 1 µM on MYLK4 was determined as 67%; at p38-gamma it was 73%; in [1], 100%; in [2], 100%; in experiment [3] it was 82%; on SBK1 it was 87%.
`O=C(CN1CCOCC1)N[C@H]1CC[C@H](Nc2cc(Cl)nn3c(-c4ccc5[nH]ncc5c4)cnc23)CC1` [compound 26]: the remaining binding at 1 µM came to 84% at CDC2L5; 11% at FLT1; 63% on GRK7; 0.7% on KIT(V559D,V654A); 95% on MEK5; 100% at MLK3. Moreover, the remaining binding at 1 µM at MYLK4 was found to be 24%; on p38-gamma it was 91%; in experiment [1] it was 99%; in [2] it was 99%; in [3], 52%; at SBK1, 89%.
As for `CN1CCC(CNc2cc(Cl)nn3c(-c4cc5nc(Nc6ccccc6)[nH]c5cc4F)cnc23)CC1` [compound 31, 6-Chloro-3-(6-fluoro-2-(phenylamino)-1H-benzo[d]imidazol-5-yl)-N-((1-methylpiperidin-4-yl)methyl)imidazo[1,2-b]pyridazin-8-amine], the remaining binding at 1 µM was found to be 96% on CDC2L5; 45% at FLT1; 77% at GRK7; 27% on KIT(V559D,V654A); 71% at MEK5; 81% on MLK3. Besides, the remaining binding at 1 µM at MYLK4 amounted to 91%; on p38-gamma, 83%; in experiment [1], 91%; in experiment [2], 100%; in experiment [3], 78%; on SBK1 it was 77%.
